Test results published in PMC10931833, “Simultaneous Purification of Human Interferon Alpha-2b and Serum Albumin Using Bioprivileged Fluorinated Ionic Liquid-Based Aqueous Biphasic Systems” (International Journal of Molecular Sciences, 2024).

What was measured:
BSA [1] = target: T1, BSA (Bos taurus, UniProt P02769); assay: Far-UV CD secondary structure of BSA (CONTIN-LL deconvolution); assay type: physicochemical, bovine; details: 1.0 mg/mL BSA, 25 °C
T1 construct: purchased Millipore Sigma-Aldrich
Description: Circular dichroism (CD) is widely used to study the secondary structures of proteins, peptides and nucleic acids, because it requires a low concentration sample, is a nondestructive method, allows studying a wide range of variables (temperature, pH, etc.), and provides information on the effect of added ligands on protein folding and interactions. Far-UV (190–260 nm) CD spectroscopy was used to assess the IFN- α 2b and BSA secondary structure since the spectra are characteristic of different structural elements.
Circular dichroism (CD) spectra were collected in a 10 mm quartz cuvette and a Chirascan spectropolarimeter (Applied Photophysics, UK) at room temperature. All CD spectra were recorded in the far-UV range of 190 to 260 nm at scan rates of 50 nm/min, with 4 accumulations, and a response time of 3 s; CD spectra were collected. For each CD experiment, two distinct duplicates were acquired and combined. BSA was fixed at 1 mg/mL, solvent concentrations ranging from 0.1 to 200 mM were used, and the spectra were translated to MRE after being expressed in terms of molar ellipticity. Spectral deconvolution was carried out with DichroWeb using the CONTIN-LL deconvolution algorithm with the SMP180 reference set.

BSA [2] = target: T1, BSA; assay: DSC thermal unfolding of BSA in water and aqueous solutions of ABS phase-forming components; assay type: physicochemical, bovine; details: for Tm / ΔG / ΔHcal / ΔHcal/ΔHvH / ΔHvH / ΔS: 1.0 mg/mL BSA
Description: Differential scanning calorimetry (DSC) measurements were performed with Nano DSC equipment, as detailed in Section 3, and used to determine the melting temperature (T m ) and enthalpy ( Δ H) of protein unfolding. DSC analyzes changes in the structure and stability of proteins as thermal transitions at the nanoscale. Using DSC to measure heat capacity as a function of the temperature of a well-studied protein such as BSA provides keen insights into folding and unfolding processes, as well as factors affecting stability. Due to the volume and concentration requirements of the DSC technique, and the constraints in available quantities of IFN- α 2b the DSC experiments on the ABS phase-forming components’ effect on the structural properties of proteins were attained only for BSA.
The T m of BSA, which corresponds to the thermal unfolding transition midpoint, was measured in the absence and presence of the ABS phase-forming components at increasing concentrations (see Figure 1 and Table 2).

T1 sequence (P02769 25-607): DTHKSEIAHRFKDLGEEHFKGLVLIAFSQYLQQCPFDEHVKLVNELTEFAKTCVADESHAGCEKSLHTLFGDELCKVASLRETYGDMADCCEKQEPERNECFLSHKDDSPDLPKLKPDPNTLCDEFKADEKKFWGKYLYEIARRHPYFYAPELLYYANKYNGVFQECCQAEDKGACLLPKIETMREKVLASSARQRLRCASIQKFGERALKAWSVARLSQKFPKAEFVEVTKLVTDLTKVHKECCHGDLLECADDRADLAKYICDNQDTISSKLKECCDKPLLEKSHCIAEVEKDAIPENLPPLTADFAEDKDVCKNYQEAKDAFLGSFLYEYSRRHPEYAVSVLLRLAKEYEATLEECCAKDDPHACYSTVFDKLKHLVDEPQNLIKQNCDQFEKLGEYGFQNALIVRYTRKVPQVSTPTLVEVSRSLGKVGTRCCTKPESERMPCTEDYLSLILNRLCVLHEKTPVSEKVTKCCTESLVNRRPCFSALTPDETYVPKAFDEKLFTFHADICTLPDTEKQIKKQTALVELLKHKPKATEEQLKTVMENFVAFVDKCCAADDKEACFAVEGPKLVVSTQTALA

Structure (SMILES): CCCCn1cc[n+](C)c1.O=S(=O)([O-])C(F)(F)F [[C4C1Im][CF3SO3], 1-butyl-3-methylimidazolium trifluoromethanesulfonate]
- Distorted Alpha Helix (BSA [1]; 0.1 mM component): 0.207
- Distorted Beta Sheet (BSA [1]; 0.1 mM component): 0.028
- Regular Alpha Helix (BSA [1]; 0.1 mM component): 0.403
- Regular Beta Sheet (BSA [1]; 0.1 mM component): 0.008
- Turns (BSA [1]; 0.1 mM component): 0.141
- Unordered (BSA [1]; 0.1 mM component): 0.212
- Distorted Alpha Helix (BSA [1]; 1 mM component): 0.215
- Distorted Beta Sheet (BSA [1]; 1 mM component): 0.023
- Regular Alpha Helix (BSA [1]; 1 mM component): 0.419
- Regular Beta Sheet (BSA [1]; 1 mM component): 0.000
- Turns (BSA [1]; 1 mM component): 0.135
- Unordered (BSA [1]; 1 mM component): 0.208
- Distorted Alpha Helix (BSA [1]; 5 mM component): 0.209
- Distorted Beta Sheet (BSA [1]; 5 mM component): 0.025
- Regular Alpha Helix (BSA [1]; 5 mM component): 0.403
- Regular Beta Sheet (BSA [1]; 5 mM component): 0.000
- Turns (BSA [1]; 5 mM component): 0.136
- Unordered (BSA [1]; 5 mM component): 0.227
- Distorted Alpha Helix (BSA [1]; 25 mM component): 0.180
- Distorted Beta Sheet (BSA [1]; 25 mM component): 0.031
- Regular Alpha Helix (BSA [1]; 25 mM component): 0.297
- Regular Beta Sheet (BSA [1]; 25 mM component): 0.020
- Turns (BSA [1]; 25 mM component): 0.128
- Unordered (BSA [1]; 25 mM component): 0.344
- Distorted Alpha Helix (BSA [1]; 55 mM component): 0.217
- Distorted Beta Sheet (BSA [1]; 55 mM component): 0.021
- Regular Alpha Helix (BSA [1]; 55 mM component): 0.390
- Regular Beta Sheet (BSA [1]; 55 mM component): 0.000
- Turns (BSA [1]; 55 mM component): 0.131
- Unordered (BSA [1]; 55 mM component): 0.240
- Distorted Alpha Helix (BSA [1]; 90 mM component): 0.202
- Distorted Beta Sheet (BSA [1]; 90 mM component): 0.026
- Regular Alpha Helix (BSA [1]; 90 mM component): 0.382
- Regular Beta Sheet (BSA [1]; 90 mM component): 0.007
- Turns (BSA [1]; 90 mM component): 0.136
- Unordered (BSA [1]; 90 mM component): 0.247
- Distorted Alpha Helix (BSA [1]; 120 mM component): 0.212
- Distorted Beta Sheet (BSA [1]; 120 mM component): 0.019
- Regular Alpha Helix (BSA [1]; 120 mM component): 0.378
- Regular Beta Sheet (BSA [1]; 120 mM component): 0.000
- Turns (BSA [1]; 120 mM component): 0.126
- Unordered (BSA [1]; 120 mM component): 0.266
- Distorted Alpha Helix (BSA [1]; 200 mM component): 0.223
- Distorted Beta Sheet (BSA [1]; 200 mM component): 0.024
- Regular Alpha Helix (BSA [1]; 200 mM component): 0.411
- Regular Beta Sheet (BSA [1]; 200 mM component): 0.000
- Turns (BSA [1]; 200 mM component): 0.136
- Unordered (BSA [1]; 200 mM component): 0.206
- Tm (BSA [2]; 0.1 mM component): 74.54 °C
- ΔG (BSA [2]; 0.1 mM component): 72.90 kJ/mol
- ΔHcal (BSA [2]; 0.1 mM component): 513.1 kJ/mol
- ΔHcal/ΔHvH (BSA [2]; 0.1 mM component): 0.946
- ΔHvH (BSA [2]; 0.1 mM component): 542.1 kJ/mol
- ΔS (BSA [2]; 0.1 mM component): 1.476 KJ/(mol.K)
- Tm (BSA [2]; 1 mM component): 75.31 °C
- ΔG (BSA [2]; 1 mM component): 61.40 kJ/mol
- ΔHcal (BSA [2]; 1 mM component): 422.1 kJ/mol
- ΔHcal/ΔHvH (BSA [2]; 1 mM component): 0.987
- ΔHvH (BSA [2]; 1 mM component): 427.8 kJ/mol
- ΔS (BSA [2]; 1 mM component): 1.210 KJ/(mol.K)
- Tm (BSA [2]; 5 mM component): 81.43 °C
- ΔG (BSA [2]; 5 mM component): 114.4 kJ/mol
- ΔHcal (BSA [2]; 5 mM component): 717.0 kJ/mol
- ΔHcal/ΔHvH (BSA [2]; 5 mM component): 1.069
- ΔHvH (BSA [2]; 5 mM component): 670.6 kJ/mol
- ΔS (BSA [2]; 5 mM component): 2.021 KJ/(mol.K)
- Tm (BSA [2]; 10 mM component): 79.02 °C
- ΔG (BSA [2]; 10 mM component): 79.80 kJ/mol
- ΔHcal (BSA [2]; 10 mM component): 517.5 kJ/mol
- ΔHcal/ΔHvH (BSA [2]; 10 mM component): 1.024
- ΔHvH (BSA [2]; 10 mM component): 505.2 kJ/mol
- ΔS (BSA [2]; 10 mM component): 1.468 KJ/(mol.K)
- Tm (BSA [2]; 25 mM component): 72.02 °C
- ΔG (BSA [2]; 25 mM component): 46.60 kJ/mol
- ΔHcal (BSA [2]; 25 mM component): 336.6 kJ/mol
- ΔHcal/ΔHvH (BSA [2]; 25 mM component): 0.992
- ΔHvH (BSA [2]; 25 mM component): 339.3 kJ/mol
- ΔS (BSA [2]; 25 mM component): 0.973 KJ/(mol.K)
- Tm (BSA [2]; 55 mM component): 72.44 °C
- ΔG (BSA [2]; 55 mM component): 51.90 kJ/mol
- ΔHcal (BSA [2]; 55 mM component): 375.8 kJ/mol
- ΔHcal/ΔHvH (BSA [2]; 55 mM component): 0.960
- ΔHvH (BSA [2]; 55 mM component): 391.4 kJ/mol
- ΔS (BSA [2]; 55 mM component): 1.086 KJ/(mol.K)
- Tm (BSA [2]; 120 mM component): 76.32 °C
- ΔG (BSA [2]; 120 mM component): 70.70 kJ/mol
- ΔHcal (BSA [2]; 120 mM component): 477.1 kJ/mol
- ΔHcal/ΔHvH (BSA [2]; 120 mM component): 0.969
- ΔHvH (BSA [2]; 120 mM component): 492.3 kJ/mol
- ΔS (BSA [2]; 120 mM component): 1.363 KJ/(mol.K)
- effect on BSA Tm (DSC) (BSA [2]; tested concentration range vs water): maintained
